Measurements: patent US10759816B2, “Heterocyclic compounds as RSV inhibitors” (Enanta Pharmaceuticals, Inc., priority 2016, dated 2020)
Read-outs that look alike come from different tables or passages of the source.

Tested on: genotype A, "Long" strain RSV
Test: RSV-A in vitro cytoprotection assay in HEp-2 cells (ATPlite readout of cell viability)
Format: cell-based, Human respiratory syncytial virus
Conditions: human respiratory syncytial virus
Procedure, shortened: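 Cytoprotection measured as ATP-based luminescence (ATPlite) after 4-day incubation of RSV Long-infected HEp-2 cells (8,000/well, 10% FBS DMEM) with 2-fold serial compound dilutions in duplicate. Identically treated virus-free plate gives cytotoxicity; EC50 calculated from viability.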

[1] = HEp-2, HEp-2 cells, genotype A “Long” strain RSV, cytoprotection, read-out: Human RSV-A (“Long” strain) EC50

Row | SMILES | EC50 [1] [nM] | EC50 (HEp-2) [nM]
1 | Cc1cccc(F)c1NC(=O)c1cc2c(s1)-c1ccc(F)cc1N(C(=O)c1cccc(N3C[C@@H](O)C[C@@H]3C)n1)CC2 [Example 493] | < 400 | –
2 | CCS(=O)(=O)CCNc1cccc(C(=O)N2CCc3cc(C(=O)Nc4c(C)cccc4F)sc3-c3ccccc32)n1 [Example 494] | < 400 | –
3 | Cc1cccc(F)c1NC(=O)c1cc2c(s1)-c1ccccc1N(C(=O)c1cccc(N3C[C@@H](O)C[C@@H]3C)n1)CC2 [Example 495] | < 400 | –
4 | Cc1noc([C@H]2C[C@@H](O)CN2c2cccc(C(=O)N3CCc4cc(C(=O)Nc5c(C)cccc5F)sc4-c4ccccc43)n2)n1 [Example 496] | > 800 | –
5 | Cc1noc([C@H]2C[C@H](O)CN2c2cccc(C(=O)N3CCc4cc(C(=O)Nc5c(C)cccc5F)sc4-c4ccccc43)n2)n1 [Example 497] | > 800 | –
6 | COC[C@H]1CCCN1c1cccc(C(=O)N2CCc3cc(C(=O)Nc4c(C)cccc4F)sc3-c3ccc(Br)cc32)n1 [Example 498] | < 400 | –
7 | COC[C@H]1CCCN1c1cccc(C(=O)N2CCc3cc(C(=O)Nc4c(C)cccc4F)sc3-c3ccc(C)cc32)n1 [Example 499] | < 400 | –
8 | COC[C@H]1CCCN1c1cccc(C(=O)N2CCc3cc(C(=O)Nc4c(C)cccc4F)sc3-c3ccc(C4CC4)cc32)n1 [Example 500] | > 800 | –
9 | COC[C@@H](Nc1cccc(C(=O)N2CCc3cc(C(=O)Nc4c(C)cccc4F)sc3-c3ccccc32)n1)c1ccccc1 [Example 501] | > 800 | –
10 | Cc1cccc(F)c1NC(=O)c1cc2c(s1)-c1ccccc1N(C(=O)c1cccc(N[C@H](CO)c3ccccc3)n1)CC2 [Example 502] | < 400 | –
11 | Cc1cccc(F)c1NC(=O)c1cc2c(s1)-c1cccc(F)c1N(C(=O)c1cccc(N3CCCOCC3)n1)CC2 [Example 503] | < 400 | –
12 | Cc1cccc(F)c1NC(=O)c1cc2c(s1)-c1cccc(F)c1N(C(=O)c1cccc(N3CCOc4ccccc4C3)n1)CC2 [Example 504] | > 800 | –
13 | COC[C@@H]1CCCN1c1cccc(C(=O)N2CCc3cc(C(=O)Nc4c(C)cccc4F)sc3-c3ccccc32)n1 [Example 505] | < 400 | –
14 | COC[C@H]1CCCN1c1cccc(C(=O)N2CCc3cc(C(=O)Nc4c(C)cccc4F)sc3-c3ccccc32)n1 [Example 506] | < 400 | –
15 | COC[C@H]1CCN1c1cccc(C(=O)N2CCc3cc(C(=O)Nc4c(C)cccc4F)sc3-c3ccccc32)n1 [Example 507] | < 400 | –
16 | O=C(Nc1ccccc1F)N[C@H]1N=C(c2ccccc2)c2ccccc2NC1=O [RSV-604, reference compound] | – | ~2400
